Reference: publication PMC11357404, “Cytotoxic and Anti-HSV-1 Effects of Caulerpin Derivatives” (Molecules, 2024)
Entries after “also recorded” stand apart in the source; their conditions may differ.

Legend:
[1] = Cytotoxicity, MTT assay in Vero cells; format: cell-based, Cercopithecus aethiops; conditions: African green monkey (Cercopithecus aethiops); for CC50 at 72 h: Absolute CC50, Vero cells, MTT; for viability at 72 h: Vero cells, cell viability curves (Figure 2), read-out: maximum percentage of cell viability
Protocol: (§1) The method of Cheng et al. was followed with modifications to evaluate the cytotoxicity of caulerpin analogs 1, 2, 3, 4, 5, 7, 8, 9, 10, and 11 at concentrations ranging from 200 to 1800 µM. Vero cells (African green monkey kidney cells Cercopithecus aethiops; ATCC, Manassas, VA, USA) grown in Dulbecco’s modified medium (DMEM) supplemented with 5% fetal bovine serum (FBS), […], and 2.5 µg/mL gentamicin at 37 °C in 5% CO2 were used. Each test sample was diluted in DMEM containing 2% fetal bovine serum at six different concentrations. Vero cells were plated at a concentration of 2 × 10^4 cells/well and incubated for 24–36 h. […] After this time, the medium was discarded and 20 μL of MTT solution was added to each well. The plates were incubated for four hours at 37 °C. Subsequently, the supernatant was removed, and 150 μL of DMSO was added to each well to dissolve the formazan crystals. The plates were shaken for 10 min, followed by absorbance reading in an ELISA microplate reader at a wavelength of 540 nm.
(§2) The MTT assay was validated by constructing a trend line using linear regression in the GraphPad Prism Version 6.01 program. Assays that presented R^2 greater than 0.70 were considered appropriate. After the validation of the MTT assay, the CC50 and CC20 values of each tested analog were calculated.

Vero cells [2] = test: Cytotoxicity, MTT assay in Vero cells; format: cell-based, Cercopithecus aethiops; conditions: Chlorocebus sabaeus; Vero cells, MTT, 72 h, 200 to 1800 µM
Protocol: as §1, §2

[3] = test system: Herpes simplex virus type 1 (HSV-1) in Vero cells; test: Antiviral screening, treatment concomitant to infection (MTT); format: cell-based; conditions: HSV-1 MOI 0.2, compound at CC20, 72 h; for inhibition of HSV-1-induced cytotoxicity (in words): versus untreated control or acyclovir
Protocol: (§3) The antiviral screening tests were performed following the method of Cheng et al., with modifications. For the anti-HSV-1 (herpes simplex virus type 1) activity of caulerpin analogs, Vero cells were used under the same conditions as described for the cytotoxicity test. The assay was divided into two steps:
Cells were infected with HSV-1 (MOI 0.2) and treated with the compound’s CC20 (concentration toxic to 20% of cells). The plates were incubated at 37 °C in 5% CO2 for 72 h, and cell viability was assessed using the MTT method.
(§4) In both assays, wells containing only cell medium were used as controls for cell growth. For positive control, wells containing medium and virus were used, and wells containing medium, virus, and acyclovir were used as a negative control.
(§5) The inhibition ratio was calculated using the following equation. % Inhibition=(OD treatment−OD positivecontrol)/(OD cell growth−OD positive control)×100 where OD = Optical density (absorbance).

[4] = test system: Herpes simplex virus type 1 (HSV-1) in Vero cells; test: Antiviral screening, post-infection treatment (MTT); format: cell-based; conditions: HSV-1 MOI 0.2 for 1 h, compound at CC20, 72 h, versus infected untreated control or acyclovir
Protocol: as §3
After removing the culture medium, the HSV-1 (MOI 0.2) was added to the wells containing cells for 1 h. After this time, the cells were washed, and the tested compounds and acyclovir were added to their CC20. The plates were incubated at 37 °C in 5% CO2 for 72 h and cell viability was assessed using the MTT method.
as §4, §5

Chikungunya virus = conditions: cited from earlier work
Vero cells [5] = test system: Vero cells; design: method as in doi:10.1590/S0102-695X2012005000072; conditions: cited from earlier work
cancer cell = test system: cancer cell; design: method as in PMID 25237346; conditions: caulerpin extracted from C. peltata; cited from earlier work

SMILES | CC50 at 72 h [1] [µM] | Emax (Vero cells [2]) [%] | inhibition of HSV-1-induced cytotoxicity (in words) [3] | inhibition of HSV-1-induced cytotoxicity (in words) [4] | other results
COC(=O)C1=Cc2c(n(Cc3ccccc3)c3ccccc23)C(C(=O)OC)=Cc2c1n(Cc1ccccc1)c1ccccc21 [Analog 6, (6E,13E)-Dimethyl-5,12-dinzyl 5,12-dihydrocycloocta[1,2b:5,6-b′]diindol-6,13-dicarboxylate] | 891 ± 87.8 | 74.1 ± 1.8 | significant inhibition | higher percentages of cellular inhibition compared to the control group | 
C=CCn1c2c(c3ccccc31)C=C(C(=O)O)c1c(c3ccccc3n1CC=C)C=C2C(=O)O [Analog 12, (6E,13E)-5,12-Diallyl-5,12-dihydrocycloocta[1,2b:5,6-b′]diindol-6,13-dicarboxylic acid] | 664 ± 55.3 | 44.5 ± 1.3 | significant inhibition; also recorded: efficacy similar to the antiviral agent acyclovir | higher percentages of cellular inhibition compared to the control group | 
O=C(O)C1=Cc2c(n(Cc3ccccc3)c3ccccc23)C(C(=O)O)=Cc2c1n(Cc1ccccc1)c1ccccc21 [Analog 13, (6E,13E)-5,12-Dibenzyl-5,12-dihydrocycloocta[1,2 b: 5,6-b′]diindol-6,13-dicarboxylic acid] | 494 ± 51.4 | 41 ± 1.2 |  |  | 
COC(=O)/C1=C/c2c([nH]c3ccccc23)/C(C(=O)OC)=C\c2c1[nH]c1ccccc21 [Analog 1, (6E,13E)-dimethyl-5,12-dihydrocycloocta[1,2b:5,6-b′]diindol-6,13-dicarboxylate] | 688 ± 35.2 | 52.7 ± 1.8 |  | higher percentages of cellular inhibition compared to the control group | EC50 (Chikungunya virus; Chikungunya virus, read-out: EC50 inhibitory effect): 0.8 µM; inhibition of viral infectivity (virucidal activity) (Chikungunya virus; at 5 μM concentration): ~90%; CC50 (Vero cells [5]): 1180 µM; inhibition of cancer cell growth (cancer cell): 12%
CCn1c2c(c3ccccc31)C=C(C(=O)OC)c1c(c3ccccc3n1CC)C=C2C(=O)OC [Analog 3, (6E,13E)-Dimethyl-5,12-diethyl-5,12 dihydrocycloocta[1,2 b: 5,6-b′]diindole-6,13-dicarboxylate] | 548 ± 38.8 | 51.5 ± 0.9 | significant inhibition | higher percentages of cellular inhibition compared to the control group | 
C=CCn1c2c(c3ccccc31)C=C(C(=O)OC)c1c(c3ccccc3n1CC=C)C=C2C(=O)OC [Analog 4] | 628 ± 69.8 | 70.1 ± 1.1 |  |  | viability at 72 h [1]: < 75%
O=C(O)C1=Cc2c([nH]c3ccccc23)C(C(=O)O)=Cc2c1[nH]c1ccccc21 [Analog 9, (6E,13E)-5,12-Dihydrocycloocta[1,2b:5,6-b′]diindol-6,13-dicarboxylic acid] | 1040 ± 62.4 | 62.6 ± 0.7 |  |  | 
Nc1nc2c(ncn2COCCO)c(=O)[nH]1 [Acyclovir, reference compound] |  |  |  |  | inhibition percentage of HSV-1-induced cytotoxicity ([3]; Vero cells): 52.79%
Cn1c2c(c3ccccc31)C=C(C(=O)O)c1c(c3ccccc3n1C)C=C2C(=O)O [Analog 10, (6E,13E)-5,12-Dimethyl-5-dihydrocycloocta[1,2b:5,6-b’]diindol-6,13-dicarboxylic acid] | 679 ± 38.3 | 71.8 ± 0.3 |  | higher percentages of cellular inhibition compared to the control group; also recorded: antiviral effects statistically similar to acyclovir | 
CCn1c2c(c3ccccc31)C=C(C(=O)O)c1c(c3ccccc3n1CC)C=C2C(=O)O [Analog 11, (6E,13E)-5,12-Diethyl-5,12-dihydrocycloocta[1,2b:5,6-b′]diindol-6,13-dicarboxylic acid] | 1000 ± 41.6 | 62.7 ± 0.8 | significant inhibition; also recorded: efficacy similar to the antiviral agent acyclovir | higher percentages of cellular inhibition compared to the control group; also recorded: antiviral effects statistically similar to acyclovir | 
COC(=O)C1=Cc2c(n(C)c3ccccc23)C(C(=O)OC)=Cc2c1n(C)c1ccccc21 [Analog 2, (6E,13E)-Dimethyl-5,12-dimethyl-5,12 dihydrocycloocta[1,2 b: 5,6-b′]diindol-6,13-dicarboxylate] | 524 ± 19.3 | 68.4 ± 0.2 |  |  | viability at 72 h [1]: < 75%
